Assay results: ChEMBL document CHEMBL5512637, “Development of Membrane-Targeting Fluorescent 2-Phenyl-1H-phenanthro[9,10-d]imidazole-Antimicrobial Peptide Mimic Conjugates against Methicillin-Resistant Staphylococcus aureus” (J Med Chem, 2024)
Active and inactive are the calls of the source. No cut-off for these calls is given here.

Tests used:
[1] = Toxicity in KM mouse infected with methicillin-resistant Staphylococcus aureus clinical isolate M-4 assessed as histopathological abnormality in kidneys at 5 mg/kg, sc measured after 24 hrs by H and E staining based analysis; format: organism-based; conditions: in vivo
Staphylococcus aureus [2] = assay: Bactericidal activity against Staphylococcus aureus ATCC 29213 at 8 times MIC incubated upto 8 hrs by time kill assay; format: functional, organism-based
Staphylococcus aureus [3] = assay: Antibacterial activity against methicillin-resistant Staphylococcus aureus clinical isolate M-4 infected in KM mouse assessed as survival rate of bacteria at 5 mg/kg, sc measured after 24 hrs relative to control; format: functional
[4] = Toxicity in KM mouse infected with methicillin-resistant Staphylococcus aureus clinical isolate M-4 assessed as histopathological abnormality in liver at 5 mg/kg, sc measured after 24 hrs by H and E staining based analysis; format: organism-based; conditions: in vivo
Staphylococcus aureus [5] = assay: Bactericidal activity against methicillin-resistant Staphylococcus aureus clinical isolate M-4 at 8 times MIC incubated upto 8 hrs by time kill assay; format: functional, organism-based
[6] = Toxicity in KM mouse infected with methicillin-resistant Staphylococcus aureus clinical isolate M-4 assessed as histopathological abnormality in lungs at 5 mg/kg, sc measured after 24 hrs by H and E staining based analysis; format: organism-based; conditions: in vivo
[7] = Toxicity in KM mouse infected with methicillin-resistant Staphylococcus aureus clinical isolate M-4 assessed as histopathological abnormality in spleen at 5 mg/kg, sc measured after 24 hrs by H and E staining based analysis; format: organism-based; conditions: in vivo
[8] = Toxicity in KM mouse infected with methicillin-resistant Staphylococcus aureus clinical isolate M-4 assessed as histopathological abnormality in heart at 5 mg/kg, sc measured after 24 hrs by H and E staining based analysis; format: organism-based; conditions: in vivo
Staphylococcus aureus [9] = assay: Antibacterial activity against methicillin-resistant Staphylococcus aureus clinical isolate M-2 incubated for 16 to 18 hrs CLSI based by microbroth dilution assay; format: functional; conditions: time 16-18 hrs
Staphylococcus aureus [10] = assay: Antibacterial activity against methicillin-resistant Staphylococcus aureus clinical isolate M-4 incubated for 16 to 18 hrs CLSI based by microbroth dilution assay; format: functional; conditions: time 16-18 hrs
Staphylococcus aureus [11] = assay: Antibacterial activity against methicillin-resistant Staphylococcus aureus clinical isolate M-1 incubated for 16 to 18 hrs CLSI based by microbroth dilution assay; format: functional; conditions: time 16-18 hrs
Staphylococcus aureus [12] = assay: Antibacterial activity against methicillin-resistant Staphylococcus aureus clinical isolate M-5 incubated for 16 to 18 hrs CLSI based by microbroth dilution assay; format: functional; conditions: time 16-18 hrs
Staphylococcus aureus [13] = assay: Bactericidal activity against Staphylococcus aureus ATCC 29213 assessed as increase in fluorescence intensity at MIC incubated for 180 mins; format: functional, organism-based
Staphylococcus aureus [14] = assay: Antibacterial activity against methicillin-resistant Staphylococcus aureus clinical isolate M-9 incubated for 16 to 18 hrs CLSI based by microbroth dilution assay; format: functional; conditions: time 16-18 hrs
Staphylococcus aureus [15] = assay: Antibacterial activity against methicillin-resistant Staphylococcus aureus clinical isolate M-10 incubated for 16 to 18 hrs CLSI based by microbroth dilution assay; format: functional; conditions: time 16-18 hrs
Staphylococcus aureus [16] = assay: Antibacterial activity against methicillin-resistant Staphylococcus aureus clinical isolate M-6 incubated for 16 to 18 hrs CLSI based by microbroth dilution assay; format: functional; conditions: time 16-18 hrs
Staphylococcus aureus [17] = assay: Antibacterial activity against methicillin-resistant Staphylococcus aureus clinical isolate M-3 incubated for 16 to 18 hrs CLSI based by microbroth dilution assay; format: functional; conditions: time 16-18 hrs
Staphylococcus aureus [18] = assay: Antibacterial activity against methicillin-resistant Staphylococcus aureus clinical isolate M-8 incubated for 16 to 18 hrs CLSI based by microbroth dilution assay; format: functional; conditions: time 16-18 hrs
Escherichia coli = assay: Antibacterial activity against Escherichia coli ATCC 25922 incubated for 16 to 18 hrs CLSI based by microbroth dilution assay; format: functional; conditions: time 16-18 hrs
Staphylococcus aureus [19] = assay: Antibacterial activity against Staphylococcus aureus ATCC 29213 incubated for 16 to 18 hrs CLSI based by microbroth dilution assay; format: functional; conditions: time 16-18 hrs
Staphylococcus aureus [20] = assay: Antibacterial activity against methicillin-resistant Staphylococcus aureus clinical isolate M-7 incubated for 16 to 18 hrs CLSI based by microbroth dilution assay; format: functional; conditions: time 16-18 hrs
[21] = Selectivity index, ratio of HC50 for sheep erythrocytes to MIC for Staphylococcus aureus ATCC 29213; format: toxicity; conditions: read-out: Selectivity Index
[22] = Hemolytic activity in sheep erythrocytes incubated for 1 hr by absorbance based assay; format: toxicity, cell-based, Ovis aries, Erythrocyte
Staphylococcus aureus [23] = assay: Bactericidal activity against Staphylococcus aureus ATCC 29213 assessed as fluorescent signal at MIC incubated for 20 mins; format: functional, organism-based

SMILES	MIC (Staphylococcus aureus [9]) [µg/mL]	MIC (Staphylococcus aureus [10]) [µg/mL]	MIC (Staphylococcus aureus [11]) [µg/mL]	MIC (Staphylococcus aureus [12]) [µg/mL]	MIC (Staphylococcus aureus [14]) [µg/mL]	MIC (Staphylococcus aureus [15]) [µg/mL]	MIC (Staphylococcus aureus [16]) [µg/mL]	MIC (Staphylococcus aureus [17]) [µg/mL]	MIC (Staphylococcus aureus [18]) [µg/mL]	MIC (Escherichia coli) [µg/mL]	MIC (Staphylococcus aureus [19]) [µg/mL]	MIC (Staphylococcus aureus [20]) [µg/mL]	selectivity ratio [21]	HC50 at 1 h [22] [µg/mL]	also measured
CN[C@H](CC(C)C)C(=O)N[C@H]1C(=O)N[C@@H](CC(N)=O)C(=O)N[C@H]2C(=O)N[C@H]3C(=O)N[C@H](C(=O)N[C@H](C(=O)O)c4cc(O)cc(O)c4-c4cc3ccc4O)[C@H](O)c3ccc(c(Cl)c3)Oc3cc2cc(c3O[C@@H]2O[C@H](CO)[C@@H](O)[C@H](O)[C@H]2O[C@H]2C[C@](C)(N)[C@H](O)[C@H](C)O2)Oc2ccc(cc2Cl)[C@H]1O [VANCOMYCIN]															Activity [1]: Non-Toxic; Activity (Staphylococcus aureus [2]): Active; survival at 5 mg/kg (Staphylococcus aureus [3]): 2.15%; Activity [4]: Non-Toxic; Activity (Staphylococcus aureus [5]): Active; Activity [6]: Non-Toxic; Activity [7]: Non-Toxic; Activity [8]: Non-Toxic
CN(C)c1ccc(-c2nc3c4ccccc4c4ccccc4c3n2CCCCBr)cc1	> 64	> 64	> 64	> 64	> 64	> 64	> 64	> 64	> 64	> 64	> 64	> 64			Activity (Staphylococcus aureus [13]): inactive
CC(C)CN(CC(C)C)C(=O)C[N+](C)(C)CCCCn1c(-c2ccc(N(C)C)cc2)nc2c3ccccc3c3ccccc3c21.[Br-]	2	1	2	2	2	2	1	1	2	64	2	1	> 79.1	158	
CCCCN(CCCC)C(=O)C[N+](C)(C)CCCCCn1c(-c2ccc(N(C)C)cc2)nc2c3ccccc3c3ccccc3c21.[Br-]	1	1	4	2	1	4	1	1	1	> 128	1	1	225	225	
CCCCN(CCCC)C(=O)C[N+](C)(C)CCCCn1c(-c2ccc(N(C)C)cc2)nc2c3ccccc3c3ccccc3c21.[Br-]	1	1	2	2	1	1	0.5	0.5	1	64	1	0.5	79.5	79.5	
CCN(CC)C(=O)C[N+](C)(C)CCCCCn1c(-c2ccc(N(C)C)cc2)nc2c3ccccc3c3ccccc3c21.[Br-]	8	8	8	8	8	8	8	8	8	128	16	8	67.8	1080	
CCCCCNC(=O)C[N+](C)(C)CCCCCn1c(-c2ccc(N(C)C)cc2)nc2c3ccccc3c3ccccc3c21.[Br-]	2	2	4	2	2	4	2	2	2	64	2	2	286	572	
CCN(CC)C(=O)C[N+](C)(C)CCCCn1c(-c2ccc(N(C)C)cc2)nc2c3ccccc3c3ccccc3c21.[Br-]	16	16	16	16	16	16	16	16	32	> 128	16	16	> 640	16	
CC(C)N(C(=O)C[N+](C)(C)CCCCn1c(-c2ccc(N(C)C)cc2)nc2c3ccccc3c3ccccc3c21)C(C)C.[Br-]	8	8	8	8	8	8	8	8	8	> 128	8	8	> 80	> 640	
CCCCCNC(=O)C[N+](C)(C)CCCn1c(-c2ccc(N(C)C)cc2)nc2c3ccccc3c3ccccc3c21.[Br-]	8	4	8	8	4	8	8	8	8	64	8	4	> 80	> 640	Activity (Staphylococcus aureus [23]): Active
CCCNC(=O)C[N+](C)(C)CCCn1c(-c2ccc(N(C)C)cc2)nc2c3ccccc3c3ccccc3c21.[Br-]	32	32	64	64	32	64	64	64	64	> 128	32	32	> 20	> 640	
CCCCCCNC(=O)C[N+](C)(C)CCCCCn1c(-c2ccc(N(C)C)cc2)nc2c3ccccc3c3ccccc3c21.[Br-]	4	1	8	8	4	8	2	2	2	64	2	1	221	442	
CCCN(CCC)C(=O)C[N+](C)(C)CCCCn1c(-c2ccc(N(C)C)cc2)nc2c3ccccc3c3ccccc3c21.[Br-]	4	4	4	4	4	4	4	4	4	128	4	4	53.3	213	
CN(C)c1ccc(-c2nc3c4ccccc4c4ccccc4c3n2CCC[N+](C)(C)CC(=O)N2CCSCC2)cc1.[Br-]	64	64	64	64	64	64	64	64	128	> 128	64	32	5.6	357	
